# What was measured:
# KCNQ1-M3 chimera channel = experiment: Patch clamp of KCNQ1-M3 chimera currents; format: cell-based, human; conditions: 1 μM ChTX, HEK293 cells, turret region mutant
# KCNQ1-Q321V channel = experiment: Patch clamp of KCNQ1 single residue mutant at Q321, sensitivity to ChTX; format: cell-based, human; conditions: site-directed mutant, HEK293 cells, Fig. 3
# KCNQ1-M1 channel chimera = experiment: Patch clamp of KCNQ1-M1 chimera currents; format: cell-based, human; conditions: 1 μM ChTX, HEK293 cells, turret and filter region mutant
# MmKv2 channel = conditions: ref [24]; cited from earlier work
# KCNQ1-K318M channel = experiment: Patch clamp of KCNQ1 single residue mutant at Lys318, sensitivity to ChTX; format: cell-based, human; conditions: site-directed mutant, HEK293 cells, Fig. 3
# MmKv1 channel = conditions: versus Kv1.3; ref [24]; cited from earlier work
# KCNQ1-M2 chimera channel = experiment: Patch clamp of KCNQ1-M2 chimera currents; format: cell-based, human; conditions: 1 μM ChTX, HEK293 cells, filter region mutant
substance,measurement,setting,value
charybdotoxin [ChTX],inhibition of KCNQ1-M3 channel currents,KCNQ1-M3 chimera channel,not effectively inhibited
same,effect of residue Q321 on the binding of ChTX,KCNQ1-Q321V channel,did not affect the binding of ChTX
same,inhibition of KCNQ1-M1 channel currents,KCNQ1-M1 channel chimera,effectively inhibited
same,sensitivity of MmKv2 toward scorpion venom and ChTX,MmKv2 channel,completely insensitive
same,effect of residue Lys318 on the binding of ChTX,KCNQ1-K318M channel,found to affect the binding of ChTX
same,"sensitivity of MmKv1 toward scorpion venom and ChTX, compared with Kv1.3",MmKv1 channel,weaker sensitivity
same,inhibition of KCNQ1-M2 channel currents,KCNQ1-M2 chimera channel,effectively inhibited
